target: Kallikrein-1 (Homo sapiens, UniProt P06870); assay: Inhibition Assay
Procedure: Prior to the assay, human TK1 (R&D Systems) was activated by incubation with human trypsin (Calbiochem) in a 1:10,000 ratio for 15 min at 37° C. For assaying TK1 inhibitory activity, activated TK1 (31.25 nM or 1 U/mL) was incubated at 24° C. with 0.1 mM fluorogenic substrate H-Pro-Phe-Arg-AMC (11295 from Bachem) and various concentrations of the test compound in assay buffer. Measurements were performed in a kinetic interval every 2nd minute for 16 min using a Spectramax M5 (Molecular Devices) with the following settings of the wavelength excitation of 350 nm and wavelength emission of 450 nm.

Chain of Kallikrein-1 (P06870 whole entry): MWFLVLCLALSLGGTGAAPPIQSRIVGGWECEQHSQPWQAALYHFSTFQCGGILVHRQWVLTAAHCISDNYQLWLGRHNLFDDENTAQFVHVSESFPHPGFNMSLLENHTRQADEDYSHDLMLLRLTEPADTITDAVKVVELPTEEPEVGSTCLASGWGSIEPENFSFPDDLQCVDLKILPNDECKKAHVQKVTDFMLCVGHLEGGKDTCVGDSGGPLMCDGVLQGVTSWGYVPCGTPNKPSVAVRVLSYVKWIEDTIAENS

IC50 [µM]	Compound
> 10	Cc1nc(N2CC3C(C2)C3(F)F)ncc1Cn1cc(C(=O)N[C@@H]2CCc3c2n[nH]c3C)cn1 (stereo partly drawn) [US10695334, Example 84]
> 10	Cc1nc(N2CC3C(C2)C3(F)F)ccc1Cn1cc(C(=O)N[C@@H]2CCc3c(C)n[nH]c32)c(C)n1 (stereo partly drawn) [US10695334, Example 18]
> 10	Cc1nc(N2CC3(CC3)C2)ccc1Cn1cc(C(=O)N[C@@H]2CCc3c(C)n[nH]c32)cn1 [US10695334, Example 11]

Reference: BindingDB's records for patent US10695334 (Boehringer Ingelheim International, 2020)
